These results are taken from ChEMBL document CHEMBL1144614, “Darpones and water-soluble aminobutoxylated darpone derivatives are distinguished by matrix COMPARE analysis” (Bioorg Med Chem Lett, 2007).

In one data set the test system is HCT-15. Nature of the data set: Growth inhibition of HCT15 cells. The format is functional. The conditions noted are these: Homo sapiens.
Data set [1] can be described thus: Solubility in phosphate buffer at pH 4.5. The format is physicochemical.

For `COc1ccc(-c2cc(-c3cccc(Cl)c3)nc3c2CC(=O)Nc2ccccc2-3)cc1`, it took 1900 nM to inhibit growth in the data set with HCT-15 by half (GI50). Compound `O=C1Cc2c(-c3ccccc3)cc(-c3cccc(Cl)c3)nc2-c2ccccc2N1` showed a 50% growth inhibitory concentration (GI50) with HCT-15 of 2700 nM. `COc1ccc2c(c1)NC(=O)Cc1c(-c3ccccc3)cc(-c3cccc(Cl)c3)nc1-2` displayed a GI50 in the data set with HCT-15 greater than 100000 nM.

In the data set on HCT-15, `COc1ccc(-c2cc(-c3ccccc3)c3c(n2)-c2ccccc2NC(=O)C3)cc1Cl` displayed a GI50 of 3000 nM. The compound `Cl.NCCCCOc1ccc(-c2cc(-c3ccccc3)c3c(n2)-c2ccccc2NC(=O)C3)cc1Cl` yielded a GI50 with HCT-15 of 13800 nM. Further, in data set [1], the solubility was less than 5 µg/mL. The compound `CN1CCN(CCCCOc2ccc(-c3cc(-c4ccccc4)c4c(n3)-c3ccccc3NC(=O)C4)cc2Cl)CC1.Cl.Cl` had a GI50 in the data set on HCT-15 of 870 nM. This compound displayed a solubility in data set [1] of less than 5 µg/mL. In the same order, the values of `CN1CCN(CCCCOc2ccc3c(c2)NC(=O)Cc2c(-c4ccccc4)cc(-c4cccc(Cl)c4)nc2-3)CC1.Cl.Cl` are 810 nM and greater than 500 µg/mL. In the data set on HCT-15, `CN1CCN(CCCCOc2ccc(-c3cc(-c4cccc(Cl)c4)nc4c3CC(=O)Nc3ccccc3-4)cc2)CC1.Cl.Cl` yielded a GI50 of 910 nM. The compound further returned a solubility in data set [1] greater than 500 µg/mL. For the compound `Cl.O=C1Cc2c(-c3ccc(OCCCCN4CCOCC4)cc3)cc(-c3cccc(Cl)c3)nc2-c2ccccc2N1`, in the data set with HCT-15, halving of growth (GI50) required 1200 nM. The compound also had a solubility in data set [1] greater than 500 µg/mL. On to `Cl.O=C1Cc2c(-c3ccccc3)cc(-c3ccc(OCCCCN4CCOCC4)c(Cl)c3)nc2-c2ccccc2N1`, for which, in the data set on HCT-15, it took 2300 nM to inhibit growth by half (GI50). In addition, in data set [1], the concentration in solution (solubility) came to 5 µg/mL. Consider `Cl.NCCCCOc1ccc(-c2cc(-c3cccc(Cl)c3)nc3c2CC(=O)Nc2ccccc2-3)cc1`, for which, in the data set with HCT-15, halving of growth (GI50) required 6600 nM. For the same compound, in data set [1], the solubility is less than 5 µg/mL. On to `Cl.O=C1Cc2c(-c3ccccc3)cc(-c3cccc(Cl)c3)nc2-c2ccc(OCCCCN3CCOCC3)cc2N1`, for which, in the data set on HCT-15, it took 1600 nM to inhibit growth by half (GI50). In data set [1], the solubility is greater than 500 µg/mL. `Cl.NCCCCOc1ccc2c(c1)NC(=O)Cc1c(-c3ccccc3)cc(-c3cccc(Cl)c3)nc1-2`: the GI50 in the data set with HCT-15 amounted to 1800 nM. Moreover, in data set [1], the solubility is less than 5 µg/mL.

Usually GI50 stands for the concentration that inhibits growth by half. One may read the solubility as the dissolved amount per volume that the medium holds.
